Data from US4520134A, “N-alkyl-4'-hydroxyacetanilides, pharmaceutical compositions comprising them and their use” (priority 1984, dated 1985).
Read-outs that look alike come from different tables or passages of the source.

Tests used:
[1] = cited from earlier work; for effect on acetaminophen hepatotoxicity: Kelleher et al.; for protection against acetaminophen toxicity: free radical scavengers; for protective effect against paracetamol: 300 mg/kg, 450 mg/kg paracetamol orally
[2] = hot plate test (Ankier), time to lick a back paw; format: in vivo, mice; details: 30 mg/kg i.p.; for average time before licking a back paw: 10 minutes after dose, plate 54° C., untreated control 44 seconds
Experimental: Two groups of mice, six mice per group, were used in the hot plate test described by S. I. Ankier European Journal of Pharmacology 27:1-4 (1974). The control group, which was untreated, at a plate temperature of 54° C. took an average of 44 seconds to lick a back paw. The test group received a dose of N-ethyl-4'-hydroxyacetanilide (30 mg/kg) administered intraperitoneally, and when placed on the hot plate at 54° C. 10 minutes later, shown an average time of 64 seconds before licking a back paw. The analgesic activity of this compound thus increased the pain-response time by almost 50 percent.
The analgesic properties of N-isopropylacetaminophen were tested using the hot plate test described by Ankier (Eur. J. Pharmacol. 27: 1-(1974)). Two groups of mice, 6 animals/group were used. The first group was placed on the hot plate, individually, and time need to lick the back paw was recorded and found to be 44 seconds (average) at 54° C. The second group of mice each received 30 mg/kg (i.p.) N-isopropylacetaminophen and after 10 minutes placed on the hot plate at 54° C. The time required to lick the rear paw was measured and found to be 64 seconds (average), thus increased response time by 50%.

[3] = toxicity of N-isopropylacetaminophen, histopathology of liver, kidney and lung; format: in vivo, mice; details: 100-400 mg/kg i.p.; 24 hours
Experimental: (§1) The toxicity of N-isopropylacetaminophen was evaluated by injecting mice with this compound at various doss from 100-400 mg/kg, i.p.) and 24 hours later, the animals were sacrificed and histopathology was determined for the liver, kidney and lung.

[4] = CNS sedation by N-isopropylacetaminophen; format: in vivo, mice
Experimental: as §1
The higher the dose, the longer the sedation. This was also found to be the case when mice were given the drug orally, except the dose needed to give the same sedative activity was higher (400-600 mg/kg, oral). This sedative effect of the drug lasted from 30 min. at 250 mg/kg to approximately 1.5 hr at 400 mg/kg. At the higher dose, the mice went to sleep.

[5] = enhancement of acetaminophen hepatotoxicity (applicant's finding); details: in vivo
[6] = vitamin E deficient rats; cited from earlier work
[7] = 1894 paper; cited from earlier work
[8] = 1894 paper, without supporting data; cited from earlier work
[9] = man; cited from earlier work
[10] = mouse, in vivo
[11] = mouse, in vivo, cited from earlier work
[12] = therapeutically recommended doses for extended periods of time; cited from earlier work
cytochrome P-450 = details: cited from earlier work
[13] = chronic use; cited from earlier work
[14] = administered within 16 hours after an overdose; cited from earlier work
[15] = administered up to one hour after acute toxic amounts of acetaminophen; cited from earlier work
[16] = mouse, in vivo; cited from earlier work
[17] = 500 mg/kg i.p. in propylene glycol

Compound: CCCOC(=O)c1cc(O)c(O)c(O)c1 [propyl gallate]
- effect on acetaminophen hepatotoxicity [1]: reduce heptatotoxicity

Compound: N[C@@H](CS)C(=O)O [cysteine]
- protection against acetaminophen hepatotoxicity ([1]; man and experimental animals): varying degrees of protection

Compound: NCCS [cysteamine]
- protection against acetaminophen hepatotoxicity ([1]; man and experimental animals): varying degrees of protection

Compound: N[C@@H](CCC(=O)N[C@@H](CS)C(=O)NCC(=O)O)C(=O)O [glutathione]
- protection against acetaminophen toxicity [1]: afford protection against acetaminophen toxicity

Compound: CC(=O)N(c1ccc(O)cc1)C(C)C [N-isopropylacetaminophen, N-isopropyl-4'-hydroxyacetanilide]
- average time before licking a back paw [2]: 64 s
- increase in response time ([2]; vs untreated control, 54° C.): 50%
- histopathology of liver, kidney and lung [3]: no organ showed any signs of injury
- duration of sedative effect ([4]; 250 mg/kg): 30 min
- duration of sedative effect ([4]; 400 mg/kg): approximately 1.5 hr
- CNS sedation ([4]; 250-400 mg/kg i.p.): significant CNS sedation
- additional CNS effects after recovery from sedation ([4]; after recovery): no additional CNS effects were observed
- sleep ([4]; higher dose): went to sleep
- dose giving significant CNS sedation in all mice ([4]; i.p.): 250 to 400 mg/kg
- dose needed to give the same sedative activity ([4]; oral): 400 to 600 mg/kg

Compound: CN(C)CCO [β-dimethylaminoethanol]
- protection against acetaminophen toxicity [1]: afford protection against acetaminophen toxicity

Compound: Cc1cc(C(C)(C)C)c(O)c(C(C)(C)C)c1 [BHT, butylated hydroxytoluene]
- effect on acetaminophen hepatotoxicity [5]: profoundly enhance its hepatotoxicity

Compound: selenium
- protection against acetaminophen hepatotoxicity ([1]; man and experimental animals): varying degrees of protection

Compound: Cc1c(C)c2c(c(C)c1O)CCC(C)(CCCC(C)CCCC(C)CCCC(C)C)O2 (stereo not drawn) [vitamin E, α-tocopherol]
- effect on acetaminophen hepatotoxicity [1]: reduce heptatotoxicity
- protection against acetaminophen hepatotoxicity ([1]; man and experimental animals): varying degrees of protection
- protection against acetaminophen hepatotoxicity [6]: protects vitamin E deficient rats

Compound: CC1NC(C(=O)O)CS1 (centres unmarked) [2-methylthiazolidine-4-carboxylic acid]
- protection against hepatotoxins ([1]; forms cysteine in the liver): can also protect against heptotoxins

Compound: CCN(C(C)=O)c1ccc(O)cc1 [N-ethyl-4'-hydroxyacetanilide]
- average time before licking a back paw [2]: 64 s
- increase in pain-response time ([2]; vs untreated control, 54° C.): ~50%
- duration of sedative effects [17]: about one-half
- sedative effects [17]: sedative effects
- time to ataxia of the hind legs [17]: about 15 minutes
- time to drowsiness [17]: about 25 minutes
- duration of sleep (600 mg/kg oral, aqueous vehicle, pH 12): 25 to 40 min
- antipyretic activity [7]: no antipyretic activity
- analgesic properties [8]: no analgesic properties

Compound: O=C1O[C@H]([C@@H](O)CO)C(O)=C1O [ascorbic acid]
- protective effect against paracetamol ([1]; nonsustained release form): no protective effect
- protective effect against paracetamol ([1]; sustained release form): substantial protective effect
- protection against acetaminophen hepatotoxicity ([1]; animal studies): may also provide such protection
- apparent half-life of acetaminophen [9]: did not affect the apparent half-life
- excretion rate of acetaminophen sulfate [9]: rapid and pronounced decrease

Compound: CC(=O)Nc1ccc(O)cc1 [acetaminophen]
- fraction of the liver necrotic (estimated) [10]: ~60%
- liver histopathology [10]: severe hepatic necrosis
- immediate symptomatic effects (mouse, in vivo): No immediate symptomatic effects
- oral LD50 ([11]; po): about 400 mg/kg
- hepatotoxicity at the oral LD50 dose [11]: severe hepatotoxicity
- hepatotoxicity on chronic ingestion [12]: massive hepatic necrosis

Compound: COc1ccc(O)c(C(C)(C)C)c1 [BHA, butylated hydroxyanisole]
- effect on acetaminophen hepatotoxicity [5]: profoundly enhance its hepatotoxicity

Compound: CCC1(c2ccccc2)C(=O)NC(=O)NC1=O [phenobarbital]
- induction of cytochrome P-450 (cytochrome P-450): well-known cytochrome P-450 inducer

Compound: CCO [ethanol]
- induction of cytochrome P-450 (cytochrome P-450): demonstrated to induce cytochrome P-450
- effect on acetaminophen-mediated hepatotoxicity [13]: markedly increased

Compound: CC(=O)N[C@@H](CS)C(=O)O [N-acetylcysteine]
- prevention of hepatotoxicity [14]: effective in preventing hepatotoxicity

Compound: CC(CN1c2ccccc2Sc2ccccc21)N(C)C (centres unmarked) [promethazine]
- protection against acetaminophen toxicity [1]: afford protection against acetaminophen toxicity

Compound: CSCC[C@H](N)C(=O)O [methionine]
- protection against acetaminophen hepatotoxicity ([1]; man and experimental animals): varying degrees of protection

Compound: C[S+](C)[O-] [DMSO, Dimethyl sulfoxide]
- protection against hepatotoxic effects of acetaminophen [15]: protect mice against the hepatotoxic effects of acetaminophen
- protection against CCl4 hepatotoxicity [16]: inability of DMSO to protect mice against CCl4 hepatotoxicity
